# Results reported in patent US20250302394A1, “QUANTITATIVE MAGNETIC RESONANCE IMAGING AND TUMOR FORECASTING” (priority 2021, published 2025).
# Several values for one entry are separate records, joined by “and”; a condition that tells them apart may be missing. Equal entries are not always repeated. Where two headings read alike, the source gives them in different places.
# Test system: TNBC
smiles,measurement,setting,value
O=P1(N(CCCl)CCCl)NCCCO1 (stereo not drawn) [cyclophosphamide],median calibrated efficacy rate α of the drug,,0.60 day⁻¹ and 0.34 day⁻¹
COc1cccc2c1C(=O)c1c(O)c3c(c(O)c1C2=O)C[C@@](O)(C(=O)CO)C[C@@H]3O[C@H]1C[C@H](N)[C@H](O)[C@H](C)O1 [doxorubicin],median calibrated efficacy rate α of the drug,"good-response patient (100% shrinkage of tumor volume at completion of A/C), Framework 1",0.47 day⁻¹
same,median calibrated efficacy rate α of the drug,"poor-response patient (33% shrinkage of tumor volume at completion of A/C), Framework 1",0.24 day⁻¹
